In ChEMBL document CHEMBL5532669, “Guiding the Way: Traditional Medicinal Chemistry Inspiration for Rational Gram-Negative Drug Design” (J Med Chem, 2024):
In brackets after ≈: the same amount, converted by molar mass.

What was measured:
Escherichia coli [1] = test: Antibacterial activity against wild type Escherichia coli assessed as reduction in microbial growth measured after 24 hrs by broth microdilution method
Escherichia coli [2] = test: as above; remark: listed apart in the source
Escherichia coli [3] = test: Antibacterial activity against wild type Escherichia coli assessed as reduction in bacterial growth inhibition incubated for 24 hrs by broth microdilution method; format: functional, organism-based
Acinetobacter baumannii [4] = test: Antibacterial activity against Acinetobacter baumannii assessed as reduction in bacterial growth by broth microdilution method; format: functional
Escherichia coli [5] = test: Antibacterial activity against Escherichia coli assessed as reduction in bacterial growth incubated for 24 hrs by broth micro-dilution method; format: functional
Klebsiella pneumoniae = test: Antibacterial activity against Klebsiella pneumoniae assessed as reduction in bacterial growth by broth microdilution method; format: functional
Pseudomonas aeruginosa = test: Antibacterial activity against Pseudomonas aeruginosa ATCC 15442 assessed as bacterial growth inhibition measured after 18 hrs by CLSI protocol based two-fold serial microdilution method; format: functional
Enterobacter cloacae = test: Antibacterial activity against Enterobacter cloacae assessed as reduction in bacterial growth by broth microdilution method; format: functional
Acinetobacter baumannii [6] = test: Antibacterial activity against wild type Acinetobacter baumannii ATCC 17978 assessed as inhibition of microbial growth measured after 24 hrs by broth microdilution method; format: functional, organism-based; conditions: ATCC 17978, 24 h
Escherichia coli [7] = test: Antibacterial activity against wild type Escherichia coli ATCC 25922 assessed as reduction in bacterial growth measured after 16 to 20 hrs by CLSI-based microbroth dilution method; format: functional, organism-based
[8] = target: T1, MexAB/OprM (Pseudomonas aeruginosa (strain ATCC 15692 / DSM 22644 / CIP 104116 / JCM14847 / LMG 12228 / 1C / PRS 101 / PAO1)) (UniProt P52477+P52002+Q51487); test: Inhibition of Pseudomonas aeruginosa MexAB-OprM P delta 6 pore assessed as minimal potentiating concentration for 4 fold reduction Levofloxacin MIC; format: protein-complex assay
[9] = target: T1, MexAB/OprM (Pseudomonas aeruginosa (strain ATCC 15692 / DSM 22644 / CIP 104116 / JCM14847 / LMG 12228 / 1C / PRS 101 / PAO1)); test: Inhibition of Pseudomonas aeruginosa MexAB-OprM P delta 6 pore assessed as minimal potentiating concentration for 4 fold reduction novobiocin MIC; format: protein-complex assay
[10] = target: T1, MexAB/OprM (Pseudomonas aeruginosa (strain ATCC 15692 / DSM 22644 / CIP 104116 / JCM14847 / LMG 12228 / 1C / PRS 101 / PAO1)); test: Inhibition of Pseudomonas aeruginosa MexAB-OprM P delta 6 pore assessed as minimal potentiating concentration for 4 fold reduction cefotaxime MIC; format: protein-complex assay
[11] = target: T1, MexAB/OprM (Pseudomonas aeruginosa (strain ATCC 15692 / DSM 22644 / CIP 104116 / JCM14847 / LMG 12228 / 1C / PRS 101 / PAO1)); test: Inhibition of Pseudomonas aeruginosa MexAB-OprM P delta 6 pore assessed as minimal potentiating concentration for 4 fold reduction carbenicillin MIC; format: protein-complex assay
[12] = target: T1, MexAB/OprM (Pseudomonas aeruginosa (strain ATCC 15692 / DSM 22644 / CIP 104116 / JCM14847 / LMG 12228 / 1C / PRS 101 / PAO1)); test: Inhibition of Pseudomonas aeruginosa MexAB-OprM P delta 6 pore assessed as minimal potentiating concentration for 4 fold reduction ciprofloxacin MIC; format: protein-complex assay

`Nc1cccc(-c2ccc(N3C[C@H](CO)OC3=O)cc2F)n1` was tested, and the IC50 (Escherichia coli [1]) was 59 µM.
For `O=C1O[C@@H](CO)CN1c1ccc(-c2cc[n+](Cc3ccccc3)cc2)c(F)c1`, the IC50 (Escherichia coli [2]) was 15.4 µM.
With `COC(=O)c1ccccc1-c1ccc(N2C[C@H](CO)OC2=O)cc1F` the IC50 (Escherichia coli [3]) was 23 µM.
`Cc1c(CN(C)C(=O)/C=C/c2cnc3c(c2)CCC(=O)N3)oc2ccccc12` [AFN-1252] was tested, and the MIC (Acinetobacter baumannii [4]) was > 32 µg/mL, the MIC (Escherichia coli [5]) was > 32 µg/mL and the MIC (Klebsiella pneumoniae) was > 32 µg/mL. The MIC (Pseudomonas aeruginosa) was > 32 µg/mL and the MIC (Enterobacter cloacae) was > 32 µg/mL.
For `O=C1O[C@@H](CO)CN1c1ccc(-c2ccnc(N3CCCC3)c2)c(F)c1`, the IC50 (Acinetobacter baumannii [6]) was 19 µM.
`O=C1O[C@@H](CO)CN1c1ccc(-c2ccccc2)c(F)c1` was tested, and the IC50 (Escherichia coli [7]) was 13.5 µM.
`O=C(/C=C/c1ccccc1Cl)Nc1ccc(C2=NCCN2)c(C2=NCCN2)c1` showed an MEC [8] of 6.25 µM, an MEC [9] of 3.12 µM and an MEC [10] of 100 µM. For the same molecule, the MEC [11] was 100 µM and the MEC [12] was 12.5 µM.
Work on `O=C1O[C@@H](CO)CN1c1ccc(-c2cc(Cl)cc(Cl)c2)c(F)c1` yielded an IC50 (Escherichia coli [1]) of 59 µM.
`Cc1c(CN(C)C(=O)/C=C/c2cnc3c(c2)CC(N)C(=O)N3)oc2ccccc12` (configuration not stated) gave an MIC (Acinetobacter baumannii [4]) of 4 µg/mL (≈ 10.2 µM), an MIC (Escherichia coli [5]) of 4 µg/mL (≈ 10.2 µM) and an MIC (Klebsiella pneumoniae) of 8 µg/mL (≈ 20.5 µM). The MIC (Pseudomonas aeruginosa) was > 64 µg/mL and the MIC (Enterobacter cloacae) was 8 µg/mL (≈ 20.5 µM).
For `COC(=O)c1cncc(-c2ccc(N3C[C@H](CO)OC3=O)cc2F)c1`, the IC50 (Acinetobacter baumannii [6]) was 19 µM.
Molecule `N/C(=N/O)c1ccc(-c2ccc(N3C[C@H](CO)OC3=O)cc2F)cc1` has an IC50 (Escherichia coli [7]) of 13.5 µM.
In the case of `CC[n+]1ccc(-c2ccc(N3C[C@H](CO)OC3=O)cc2F)cc1`, the IC50 (Escherichia coli [2]) is reported as 15.4 µM.
`O=Cc1ccc(-c2ccc(N3C[C@H](CO)OC3=O)cc2F)cc1` gave an IC50 (Escherichia coli [7]) of 13.5 µM.
Molecule `O=C1O[C@@H](CO)CN1c1ccc(-c2ccc(-c3ccccn3)cc2)c(F)c1` has an IC50 (Escherichia coli [7]) of 13.5 µM.
For `C[n+]1cccc(-c2ccc(-c3ccc(N4C[C@H](CO)OC4=O)cc3F)cc2)c1`, the IC50 (Escherichia coli [2]) was 15.4 µM.
`C[n+]1ccccc1-c1ccc(-c2ccc(N3C[C@H](CO)OC3=O)cc2F)cc1` was tested, and the IC50 (Escherichia coli [2]) was 15.4 µM.
`CC(C)[n+]1ccc(-c2ccc(N3C[C@H](CO)OC3=O)cc2F)cc1` was tested, and the IC50 (Escherichia coli [7]) was 13.5 µM.
For `CSCc1ccc(N2C[C@H](CO)OC2=O)cc1F`, the IC50 (Escherichia coli [1]) was 59 µM.
`C[n+]1ccc2cc(-c3ccc(N4C[C@H](CO)OC4=O)cc3F)ccc2c1` gave an IC50 (Escherichia coli [2]) of 15.4 µM.
In the case of `CC(O)c1ccc(OCc2ccc(N3C[C@H](CO)OC3=O)cc2F)cc1` (some centres not stated), the IC50 (Escherichia coli [1]) is reported as 59 µM.
Work on `C[n+]1ccc(-c2ccc(-c3ccc(N4C[C@H](CO)OC4=O)cc3F)cc2)cc1` yielded an IC50 (Escherichia coli [2]) of 15.4 µM.
Molecule `CC(C)c1ccc(-c2ccc(N3C[C@H](CO)OC3=O)cc2F)c(C(C)C)c1` has an IC50 (Escherichia coli [3]) of 23 µM.
Molecule `O=C1O[C@@H](CO)CN1c1ccc(-c2cccc(CO)c2)c(F)c1` has an IC50 (Escherichia coli [7]) of 13.5 µM.
`Cc1cc(=O)n(C)c2c3c4c(cc12)c(C)cc(=O)n4C(CN)CO3` (configuration not stated) showed an MIC (Acinetobacter baumannii [4]) of 2 µg/mL (≈ 6.15 µM), an MIC (Escherichia coli [5]) of 0.5 µg/mL (≈ 1.54 µM) and an MIC (Klebsiella pneumoniae) of 1 µg/mL (≈ 3.07 µM). It also gave an MIC (Pseudomonas aeruginosa) of 16 µg/mL (≈ 49.2 µM) and an MIC (Enterobacter cloacae) of 0.5 µg/mL (≈ 1.54 µM).
`Cc1c(CNCCCCCCCCNC(=N)N)cc(-c2ccc(Cl)cc2)n1-c1ccc(Cl)cc1` showed an MIC (Acinetobacter baumannii [4]) of 8 µg/mL (≈ 16 µM), an MIC (Escherichia coli [5]) of 8 µg/mL (≈ 16 µM) and an MIC (Klebsiella pneumoniae) of 16 µg/mL (≈ 32 µM). The MIC (Pseudomonas aeruginosa) was 64 µg/mL (≈ 128 µM).
`O=C1O[C@@H](CO)CN1c1ccc(-c2ccc(CO)cc2)c(F)c1` gave an IC50 (Escherichia coli [7]) of 13.5 µM.
`O=C1O[C@@H](CO)CN1c1ccc(-c2ccc(SC(F)(F)F)cc2)c(F)c1` gave an IC50 (Escherichia coli [7]) of 13.5 µM.
`O=C1O[C@@H](CO)CN1c1ccc(-c2ccccc2OC(F)(F)F)c(F)c1` showed an IC50 (Escherichia coli [3]) of 23 µM.
With `CCC[n+]1ccc(-c2ccc(N3C[C@H](CO)OC3=O)cc2F)cc1` the IC50 (Escherichia coli [2]) was 15.4 µM.
`COCc1ccc(N2C[C@H](CO)OC2=O)cc1F` showed an IC50 (Escherichia coli [1]) of 59 µM.
In the case of `O=C(/C=C/c1ccccc1Cl)Nc1ccc(C2=NCCN2)cc1`, the MEC [8] is reported as > 100 µM, the MEC [9] is reported as > 100 µM and the MEC [10] is reported as > 100 µM. The MEC [11] was > 100 µM and the MEC [12] was > 100 µM.
With `Cc1c(CNC2CCCCC2)cc(-c2ccc(Cl)cc2)n1-c1ccc(Cl)cc1` the MIC (Acinetobacter baumannii [4]) was 64 µg/mL (≈ 155 µM), the MIC (Escherichia coli [5]) was > 128 µg/mL and the MIC (Klebsiella pneumoniae) was > 128 µg/mL. For the same molecule, the MIC (Pseudomonas aeruginosa) was > 128 µg/mL.
`Cc1c(CNC2CCC(N)CC2)cc(-c2ccc(Cl)cc2)n1-c1ccc(Cl)cc1` (configuration not stated) showed an MIC (Acinetobacter baumannii [4]) of 16 µg/mL (≈ 37.3 µM), an MIC (Escherichia coli [5]) of 8 µg/mL (≈ 18.7 µM) and an MIC (Klebsiella pneumoniae) of 16 µg/mL (≈ 37.3 µM). It also gave an MIC (Pseudomonas aeruginosa) of 32 µg/mL (≈ 74.7 µM).
